From article PMC12155096 (International Journal of Molecular Sciences, 2025)
Where a name gives a salt, the structure may show the parent alone. Read-outs that look alike come from different tables or passages of the source.

Key:
[1] = target: T1, human CYP1A2 (Homo sapiens, UniProt P05177)
T1 sequence (P05177 1-516): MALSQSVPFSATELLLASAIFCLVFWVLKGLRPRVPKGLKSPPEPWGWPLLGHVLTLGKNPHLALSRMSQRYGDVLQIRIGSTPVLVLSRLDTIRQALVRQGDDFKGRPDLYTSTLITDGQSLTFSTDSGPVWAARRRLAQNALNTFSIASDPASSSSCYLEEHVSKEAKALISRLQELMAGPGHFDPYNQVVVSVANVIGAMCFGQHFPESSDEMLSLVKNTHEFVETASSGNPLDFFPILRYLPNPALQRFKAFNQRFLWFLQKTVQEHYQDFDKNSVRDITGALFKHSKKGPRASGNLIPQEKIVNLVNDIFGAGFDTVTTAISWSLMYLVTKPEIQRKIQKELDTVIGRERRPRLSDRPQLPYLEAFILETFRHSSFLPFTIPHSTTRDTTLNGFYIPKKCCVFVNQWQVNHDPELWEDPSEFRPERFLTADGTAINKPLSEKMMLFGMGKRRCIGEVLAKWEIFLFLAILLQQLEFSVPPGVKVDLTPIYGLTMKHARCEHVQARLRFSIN

[2] = target: human CYP2D6 (Homo sapiens, UniProt P10635)
[3] = target: T2, human CYP2C19 (Homo sapiens, UniProt P33261)
[4] = target: T3, human CYP2C9 (Homo sapiens, UniProt P11712)
[5] = target: T3, human CYP2C9; assay: biochemical
[6] = target: T2, human CYP2C19; assay: biochemical
[7] = CYP2C9 AC50 (half-maximal activity concentration)
[8] = CYP2C19 AC50 (half-maximal activity concentration)
[9] = CYP2C9 IC50 (half-maximal inhibitory concentration)
[10] = CYP2C19 IC50 (half-maximal inhibitory concentration)

Chain of human CYP2D6 (P10635 whole entry): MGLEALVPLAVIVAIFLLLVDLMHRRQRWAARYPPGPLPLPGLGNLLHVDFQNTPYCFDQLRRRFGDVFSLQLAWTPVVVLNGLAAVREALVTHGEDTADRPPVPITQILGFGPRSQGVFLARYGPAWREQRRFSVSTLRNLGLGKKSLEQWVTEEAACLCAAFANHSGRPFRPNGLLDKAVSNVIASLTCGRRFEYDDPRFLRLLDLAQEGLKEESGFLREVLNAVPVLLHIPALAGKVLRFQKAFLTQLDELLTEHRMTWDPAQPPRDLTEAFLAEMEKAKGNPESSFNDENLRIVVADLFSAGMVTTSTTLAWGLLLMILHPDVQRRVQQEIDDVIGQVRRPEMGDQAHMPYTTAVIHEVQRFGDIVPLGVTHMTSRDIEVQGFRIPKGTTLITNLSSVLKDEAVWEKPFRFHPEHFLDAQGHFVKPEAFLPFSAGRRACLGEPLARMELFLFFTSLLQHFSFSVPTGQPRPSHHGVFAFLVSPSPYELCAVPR
T2 sequence (P33261 whole entry): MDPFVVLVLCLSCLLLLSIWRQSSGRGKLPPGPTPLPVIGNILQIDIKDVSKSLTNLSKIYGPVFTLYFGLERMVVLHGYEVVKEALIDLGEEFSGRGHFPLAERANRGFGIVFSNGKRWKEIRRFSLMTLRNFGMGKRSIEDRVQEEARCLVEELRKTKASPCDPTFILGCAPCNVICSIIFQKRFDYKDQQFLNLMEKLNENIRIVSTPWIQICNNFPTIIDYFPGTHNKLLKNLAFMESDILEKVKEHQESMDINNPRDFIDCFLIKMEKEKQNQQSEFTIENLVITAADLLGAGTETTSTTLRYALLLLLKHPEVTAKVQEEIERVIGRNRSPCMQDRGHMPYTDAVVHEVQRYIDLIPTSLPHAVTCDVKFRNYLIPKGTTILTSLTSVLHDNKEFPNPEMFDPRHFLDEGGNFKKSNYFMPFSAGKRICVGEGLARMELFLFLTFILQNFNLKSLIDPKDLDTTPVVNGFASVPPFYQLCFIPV
T3 sequence (P11712 whole entry): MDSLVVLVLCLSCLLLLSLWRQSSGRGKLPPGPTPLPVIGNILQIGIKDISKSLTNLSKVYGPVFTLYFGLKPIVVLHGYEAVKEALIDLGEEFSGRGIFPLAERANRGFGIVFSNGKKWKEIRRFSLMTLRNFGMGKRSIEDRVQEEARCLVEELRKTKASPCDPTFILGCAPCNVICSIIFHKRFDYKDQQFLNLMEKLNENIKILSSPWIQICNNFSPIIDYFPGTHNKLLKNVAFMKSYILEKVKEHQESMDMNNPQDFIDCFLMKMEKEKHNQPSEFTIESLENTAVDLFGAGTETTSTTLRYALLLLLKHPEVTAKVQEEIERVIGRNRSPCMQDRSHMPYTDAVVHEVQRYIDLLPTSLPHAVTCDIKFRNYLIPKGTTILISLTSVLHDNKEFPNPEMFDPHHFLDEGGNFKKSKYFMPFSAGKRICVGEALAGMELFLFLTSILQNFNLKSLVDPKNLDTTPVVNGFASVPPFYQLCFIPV

## Nc1nc2ccccc2n1Cc1ccc(F)cc1
[1]
  CYP1A2 Efficacy (in parenthesis): 19.77 ± 4.14 (-57 ± 9) %
  IC50: 19.8 µM
[2]
  CYP2D6 Efficacy (in parenthesis): 0.67 ± 0.04 (-102 ± 1) %
  IC50: 0.67 µM
[3]
  CYP2C19 Efficacy (in parenthesis): 17.62 ± 3.69 (-115 ± 18) %
  IC50: 17.6 µM

## CCC(OC(C)=O)C(CC(C)NC)(c1ccccc1)c1ccccc1.Cl (stereo not drawn)
[4]
  CYP2C9 Efficacy (in parenthesis): 63.02 ± 38.37 (-35 ± 6) %
  IC50: 63 µM
[2]
  CYP2D6 Efficacy (in parenthesis): 15.52 ± 2.14 (-95 ± 2) %
  IC50: 15.5 µM
[3]
  CYP2C19 Efficacy (in parenthesis): 21.99 ± 10.33 (-95 ± 7) %
  IC50: 22 µM

## Cc1cc(-c2cc(C)c(N)c(C)c2)cc(C)c1N [3,3'.5,5'-Tetramethylbenzidine]
[1]
  IC50: 0.45 µM

## CCC(C)(C)c1ccc(O)cc1 [4-(2-Methylbutan-2-yl)phenol]
[5]; [7]
  AC50: 14.8 µM
[6]; [8]
  AC50: 4.21 µM

## Sc1ncnc2nc[nH]c12 [6-Mercaptopurine]
[5]; [7]
  AC50: 22 µM
[6]; [8]
  AC50: 34.7 µM

## COc1c2occc2cc2ccc(=O)oc12 [8-Methoxypsoralen]
[4]; human
  CYP2C9 Efficacy (in parenthesis): 7.56 ± 2.14 (-95 ± 11) %
[5]; [9]
  IC50: 7.56 µM
[2]; human
  CYP2D6 Efficacy (in parenthesis): 7.42 ± 0.95 (-106 ± 2) %
[3]; human
  CYP2C19 Efficacy (in parenthesis): 12.67 ± 4.61 (-156 ± 24) %

## C[C@]12CCC(=O)C=C1CC[C@@H]1[C@@H]2CC[C@@]2(C)[C@H]1CC[C@]2(C)O [17-Methyltestosterone]
[5]; [7]
  AC50: 32.7 µM

## CCC(=O)O[C@]1(C(=O)COC)[C@@H](C)C[C@H]2[C@@H]3CCC4=CC(=O)C=C[C@]4(C)[C@@]3(F)[C@@H](O)C[C@@]21C [Amelometasone]
[4]
  IC50: 26 µM
[2]
  IC50: 19.5 µM
[3]
  IC50: 43.6 µM

## O=C(Nc1ccc(S(=O)(=O)N2CCOCC2)cc1)c1cc(Cl)ccc1NS(=O)(=O)c1ccc(Cl)s1 [Ataciguat]
[4]; human
  CYP2C9 Efficacy (in parenthesis): 0.05 ± 0.01 (-98 ± 7) %
[5]
  IC50: 0.05 ± 0.01 µM
[6]
  IC50: 41.3 ± 3.36 µM
[3]; human
  CYP2C19 Efficacy (in parenthesis): 41.28 ± 3.36 (-131 ± 15) %

## COC(=O)N[C@H](C(=O)N[C@@H](Cc1ccccc1)[C@@H](O)CN(Cc1ccc(-c2ccccn2)cc1)NC(=O)[C@@H](NC(=O)OC)C(C)(C)C)C(C)(C)C [Atazanavir]
[5]
  IC50: 15.5 µM
[6]
  IC50: 36.4 ± 6.55 µM

## CC(C)(c1ccc(O)cc1)c1ccc(O)cc1 [Bisphenol A]
[5]; [7]
  AC50: 29.1 µM
[6]; [8]
  AC50: 20 µM

## CC(C)C[C@H]1C(=O)N2CCC[C@H]2[C@]2(O)O[C@](NC(=O)[C@@H]3C=C4c5cccc6[nH]c(Br)c(c56)C[C@H]4N(C)C3)(C(C)C)C(=O)N12 [Bromocriptine mesylate]
[5]; [9]
  IC50: 7.32 µM
[6]; [10]
  IC50: 20.8 µM

## CC(C)C[C@H](NC(=O)[C@H](CCc1ccccc1)NC(=O)CN1CCOCC1)C(=O)N[C@@H](Cc1ccccc1)C(=O)N[C@@H](CC(C)C)C(=O)[C@@]1(C)CO1 [Carfilzomib]
[5]; [9]
  IC50: 29.2 µM

## O=C1c2ccccc2C(=O)C1C(=O)C(c1ccccc1)c1ccc(Cl)cc1 (stereo not drawn) [Cholorophacinone]
[4]
  IC50: 0.9 µM

## CC1(C)C(C=C(Cl)Cl)C1C(=O)OC(C#N)c1cccc(Oc2ccccc2)c1 (stereo not drawn) [Cypermethrin]
[5]; [7]
  AC50: 11.9 µM
[6]; [8]
  AC50: 24.6 µM

## CC(=O)O[C@]1(C(C)=O)CC[C@H]2[C@@H]3C=C(Cl)C4=CC(=O)[C@@H]5C[C@@H]5[C@]4(C)[C@H]3CC[C@@]21C [Cyproterone acetate]
[1]
  CYP1A2 AC50 (half-maximal activity concentration): Inactive
[5]; [7]
  AC50: 15 µM
[2]
  CYP2D6 AC50 (half-maximal activity concentration): Inactive
[3]
  CYP2C19 AC50 (half-maximal activity concentration): Inconclusive inhibitor

## CCCCCCCCCC(=O)O [Decanoic acid]
[5]; [7]
  AC50: 69.7 µM

## C[C@]12CCC(=O)C=C1[C@@H]1C[C@@H]1[C@H]1[C@@H]3[C@@H]4C[C@@H]4[C@@]4(CCC(=O)O4)[C@@]3(C)CC[C@@H]12 [Drospirenone]
[5]
  AC50: 26.4 ± 7.81 µM
[6]
  AC50: 1.17 ± 0.35 µM

## CC(=O)Oc1ccc2c(c1)CC[C@@H]1[C@@H]2CC[C@]2(C)[C@@H](O)CC[C@@H]12 [Estradiol acetate]
[6]
  AC50: 20.6 ± 4.65 µM

## CCCSP(=O)(OCC)SCCC [Ethoprop]
[5]; [7]
  AC50: 37 µM
[6]; [8]
  AC50: 20 µM

## O=C(O)Cc1ccccc1Oc1ccc(Cl)cc1Cl [Fenclofenac]
[5]
  AC50: 29.7 ± 12.5 µM

## O=C(O)c1ccccc1Nc1cccc(C(F)(F)F)c1 [Flufenamic acid]
[5]
  AC50: 23.9 ± 9.43 µM

## Fc1ccc(C(c2ccc(F)cc2)N2CCN(C/C=C/c3ccccc3)CC2)cc1 [Flunarizine]
[5]; [7]
  AC50: 14.9 µM

## COc1ccc(S(=O)(=O)Nc2nnc(CC(C)C)s2)cc1 [Glysobuzole]
[5]; [7]
  AC50: 12.5 µM

## Cl[C@H]1[C@H](Cl)[C@@H](Cl)[C@@H](Cl)[C@H](Cl)[C@H]1Cl [Lindane]
[5]; [7]
  AC50: 43.2 µM
[6]; [8]
  AC50: 35.7 µM

## O=C(O)Cn1c(C(=O)Nc2nc(-c3ccccc3Cl)cs2)cc2ccccc21 [Lintitript]
[5]; [7]
  AC50: 35.1 µM

## CN(C)C(=O)C(CCN1CCC(O)(c2ccc(Cl)cc2)CC1)(c1ccccc1)c1ccccc1 [Loperamide hydrochloride]
[6]; [8]
  AC50: 40.5 µM

## CCOC(=O)O[C@]1(C(=O)OCCl)CC[C@H]2[C@@H]3CCC4=CC(=O)C=C[C@]4(C)[C@H]3[C@@H](O)C[C@@]21C [Loteprednol etabonate, reference compound]
[5]; [9]
  IC50: 29.2 µM

## Cc1nc2ccccc2c(=O)n1-c1ccccc1Cl [Mecloqualone]
[5]; [7]
  AC50: 37.7 µM
[6]; [8]
  AC50: 2.88 µM

## COCC(=O)N(c1c(C)cccc1C)C(C)C(=O)OC (stereo not drawn) [Metalaxyl]
[5]; [7]
  AC50: 59.1 µM
[6]; [8]
  AC50: 38.4 µM

## CN1CC[C@]23c4c5ccc(O)c4O[C@H]2[C@@H](O)C=C[C@H]3[C@H]1C5 [Morphine sulfate pentahydrate]
[1]
  CYP1A2 AC50 (half-maximal activity concentration): Inactive
[4]
  CYP2C9 AC50 (half-maximal activity concentration): Inactive
[3]
  CYP2C19 AC50 (half-maximal activity concentration): Inactive

## Cc1ccccc1C(=O)Nc1ccc(C(=O)N2CCCC(N(C)C)c3ccccc32)cc1 (stereo not drawn) [Mozavaptan]
[4]; human
  CYP2C9 Efficacy (in parenthesis): 26.02 ± 12.23 (-35 ± 0) %
[5]; [9]
  IC50: 26 µM

## CC(C)[C@H]1CC[C@H](C(=O)N[C@H](Cc2ccccc2)C(=O)O)CC1 [Nateglinide]
[5]; [7]
  AC50: 14 µM

## O=C(OCC(COC(=O)c1cccnc1)(COC(=O)c1cccnc1)COC(=O)c1cccnc1)c1cccnc1 [Niceritrol]
[5]
  IC50: 3.44 µM

## CCOC(=O)C1=C(C)NC(C)=C(C(=O)OC)C1c1cccc([N+](=O)[O-])c1 (stereo not drawn) [Nitrendipine]
[5]; [9]
  IC50: 0.88 µM
[6]; [10]
  IC50: 1.4 µM

## CC(=O)Oc1ccc(C2(c3ccc(OC(C)=O)cc3)C(=O)Nc3ccccc32)cc1 [Oxyphenisatin acetate]
[5]; [7]
  AC50: 5.5 µM
[6]; [8]
  AC50: 11.9 µM

## O=c1[nH]c2ccccc2n1C1CCN(CCCC(c2ccc(F)cc2)c2ccc(F)cc2)CC1 [Pimozide]
[1]
  CYP1A2 AC50 (half-maximal activity concentration): Inactive

## CC(C)(C)C(=O)OCOC(=O)[C@@H]1N2C(=O)[C@@H](NC(=O)[C@H](N)c3ccccc3)[C@H]2SC1(C)C [Pivampicillin]
[5]; [9]
  IC50: 23.6 µM

## COc1cc([C@@H]2c3cc4c(cc3[C@H](O)[C@H]3COC(=O)[C@H]23)OCO4)cc(OC)c1OC [Podofilox]
[5]
  IC50: 1.97 µM
[6]; [10]
  IC50: 3.71 µM

## CN1C(CSCC(F)(F)F)Nc2cc(Cl)c(S(N)(=O)=O)cc2S1(=O)=O (stereo not drawn) [Polythiazide]
[5]; [7]
  AC50: 14.9 µM
[6]; [8]
  AC50: 22 µM

## CCCOC(=O)Cc1ccc(OCC(=O)N(CC)CC)c(OC)c1 [Propanidid]
[5]; [7]
  AC50: 21.2 µM

## CCCOC(C(=O)OC1CCN(C)CC1)(c1ccccc1)c1ccccc1.Cl [Propiverine hydrochloride]
[2]
  IC50: 6.81 µM

## COc1ccc(S(=O)(=O)N2c3ccc(Cl)cc3[C@](O)(c3ccccc3Cl)[C@@H]2C(=O)N2CCC[C@H]2C(N)=O)cc1OC [Relcovaptan]
[5]
  IC50: 27.7 ± 9.09 µM

## CN(CCOc1ccc(CC2SC(=O)NC2=O)cc1)c1ccccn1 (stereo not drawn) [Rosiglitazone maleate]
[3]
  CYP2C19 AC50 (half-maximal activity concentration): Inconclusive inhibitor

## CCCc1ccc(OCC(=O)N2CCN(C(=O)COc3ccc(CCC)cc3OC)CC2)c(OC)c1 [Simetride]
[5]
  IC50: 6.41 ± 6.45 µM
[6]
  IC50: 17 ± 19.1 µM

## CC(=O)N(c1onc(C)c1C)S(=O)(=O)c1ccc(N)cc1 [Sulfisoxazole acetal]
[5]; [7]
  AC50: 25.8 µM

## O=C1OC(c2ccc(O)c(S(=O)(=O)O)c2)(c2ccc(O)c(S(=O)(=O)O)c2)c2c(Br)c(Br)c(Br)c(Br)c21 [Sulfobromophthalein]
[5]; [7]
  AC50: 43.6 µM

## CCC(=O)O[C@H]1CC[C@H]2[C@@H]3CCC4=CC(=O)CC[C@]4(C)[C@H]3CC[C@]12C [Testosterone propionate]
[5]; [7]
  AC50: 30.9 µM
[6]; [8]
  AC50: 26 µM

## CCCC(CCC)C(=O)O [Valproic acid]
[5]; [7]
  AC50: 47.3 µM

## CCC1=C[C@@H]2CN(C1)Cc1c([nH]c3ccccc13)[C@@](C(=O)OC)(c1cc3c(cc1OC)N(C)[C@H]1[C@@](O)(C(=O)OC)[C@H](OC(C)=O)[C@]4(CC)C=CCN5CC[C@]31[C@@H]54)C2 [Vinorelbine tartrate]
[5]; [9]
  IC50: 21 µM

## O=C(O)Cn1c(=O)n(Cc2ccc(Br)cc2F)c(=O)c2ccc(Cl)cc21 [Zenarestat]
[5]
  AC50: 14.4 ± 0.97 µM

## CC1(C)C(C=C(Cl)Cl)C1C(=O)OC(C#N)c1cccc(Oc2ccccc2)c1 (stereo not drawn) [alpha-Cypermethrin]
[5]; [7]
  AC50: 3.56 µM
[6]; [8]
  AC50: 6.44 µM

## COCCCC/C(=N\OCCN)c1ccc(C(F)(F)F)cc1 [fluvoxamine, reference compound]
[1]; human
  IC50: 0.2 µM

## Cresyl diphenyl phosphate
[1]
  AC50: 8.9 µM
[4]
  AC50: 6.19 µM
[2]
  CYP2D6 AC50 (half-maximal activity concentration): Inactive
[3]
  AC50: 4.18 µM
